Test results published in publication PMC11587505, “Identification and In Vitro and In Vivo Characterization of KAC-50.1 as a Potential α-Synuclein PET Radioligand” (ACS Chemical Neuroscience, 2024).

Molecular target: T1, α-synuclein (recombinant fibrils) (Homo sapiens, UniProt P37840)
T1 construct: gene SNCA; recombinant human α-syn fibrils (pET-3a construct)
Experiment: radioligand saturation binding (filtration) on recombinant fibrils

COc1ccc(/C=C/c2cn(-c3ccccc3)nn2)cc1 [50.1, KAC-50.1]
Kd: 35 nM
